In paper PMC11864979, “First-in-class ultralong-target-residence-time p38α inhibitors as a mitosis-targeted therapy for colorectal cancer” (Nature Cancer, 2025):
Where “and” joins values, the source holds several entries; their conditions need not be identical. Identical values can stand only once. Like-named read-outs stand apart in the source and are kept apart here.

What was measured:
[1] = tested on: KAP organoids; assay: cell viability in KAP organoids (CellTiter-Glo); format: cell-based, mouse
Protocol: (§1) For in vitro treatment studies, organoids were mechanically dissociated and digested using TrypLE supplemented with 100 µg ml^−1 DNaseI and 10.5 µM Y-27632 dihydrochloride (Invitrogen) at 37 °C. A total of 1,000–2,000 single cells were plated per well in white 96-well plates (Greiner) in culture medium containing 10% GFR Matrigel or Cultrex BME. The treatment with doxycycline (5 µg ml^−1), pharmacological inhibitors or corresponding volumes of DMSO was started 24 h after plating. Doxycycline was obtained from Sigma-Aldrich. […] Cell viability was measured by means of CellTiter-Glo 3D or CellTiter-Glo 2.0 reagent (Promega) according to the manufacturers’ instructions and the Infinite M Plex reader (Tecan, i-control version 3.9.1 software). Results were normalized to vehicle (DMSO) or to shNC. For cell-doubling assays, the cell number was quantified at the corresponding time points using Guava EasyCyte flow cytometer (Luminex, CytoSoft v5.2 software).

[2] = tested on: PDO6; assay: cell viability in patient-derived CRC organoids PDO6; format: cell-based, human
Protocol: as §1

[3] = tested on: PDO7; assay: cell viability in patient-derived CRC organoids PDO7; format: cell-based, human
Protocol: as §1

[4] = tested on: PDO10; assay: cell viability in patient-derived CRC organoids PDO10; format: cell-based, human
Protocol: as §1

[5] = tested on: PDO13; assay: cell viability in patient-derived CRC organoids PDO13; format: cell-based, human
Protocol: as §1

[6] = tested on: PDO14; assay: cell viability in patient-derived CRC organoids PDO14; format: cell-based, human
Protocol: as §1

[7] = tested on: PDO15; assay: cell viability in patient-derived CRC organoids PDO15; format: cell-based, human
Protocol: as §1

[8] = tested on: LS 174T; assay: cell viability in human CRC cell line LS 174T; format: cell-based; details: 4 d
Protocol: The cells were cultured at 37 °C and 7% CO2 with RPMI (KAP^2D cells) or DMEM (other cell lines), supplemented with 10% FBS and penicillin–streptomycin. […] No commonly misidentified cell lines were used. Mycoplasma contamination was excluded by a PCR-based analysis.

O=C1c2ccc(Nc3ccc(F)cc3F)cc2CCc2ccc(OC[C@H](O)CO)cc21 [SKL, skepinone-L, reference compound]
Cell viability (%) ([1]; Fig. 1g, 0.5 µM, replicates): 97.57% and 86.81% and 127.06% | Cell viability (%) ([1]; Fig. 1g, 1 µM, replicates): 93.70% and 102.05% and 122.58% | Cell viability (%) ([1]; Fig. 2b, compound screen, replicates): 78.66% and 92.01% and 89.54% | Cell viability (%) ([1]; Fig. 1d, 0.5 µM, replicates): 86.70% and 72.97% | Cell viability (%) ([1]; Fig. 1d, 1 µM, replicates): 91.26% and 93.11% | Cell viability (%) ([1]; Fig. 1d, 5 µM, replicates): 88.80% and 85.26% | Cell viability (%) ([1]; Fig. 1d, 10 µM, replicates): 80.68% and 88.78% and 66.49% | viability at 0.5 µM ([1]; Mus musculus, 24 h, read-out: Cell viability (%), Fig. 1d, 0.5 µM, replicates): 90.7% | viability at 1 µM ([1]; Mus musculus, 24 h, read-out: Cell viability (%), Fig. 1d, 1 µM, replicates): 87.6% | viability at 5 µM ([1]; Mus musculus, 24 h, read-out: Cell viability (%), Fig. 1d, 5 µM, replicates): 86.5% | viability at 1 µM ([1]; Mus musculus, read-out: Cell viability (% of DMSO), drug screen in KAP organoids, 1 µM concentration, n = 3, mean): 86.7% | induction of cell death in KAP organoids (in words) ([1]; viability assay): only a very weak induction of cell death | viability at 1 µM ([2]; Homo sapiens, 96 h, read-out: Cell viability (%), PDO6, 1 µM, 4 days): 112% | Cell viability (%) ([2]; PDO6, 0.5 µM, 4 d, 0.5 µM): 101.15% and 118.77% and 80.46% | Cell viability (%) ([2]; PDO6, 1 µM, 4 days, 1 µM): 110.32% and 93.07% | viability at 0.5 µM ([3]; Homo sapiens, 96 h, read-out: Cell viability (%), PDO7, 0.5 µM, 4 d): 82.8% | viability at 1 µM ([3]; Homo sapiens, 96 h, read-out: Cell viability (%), PDO7, 1 µM, 4 days): 96.8% | Cell viability (%) ([3]; PDO7, 0.5 µM, 4 d, 0.5 µM): 101.04% and 90.15% | Cell viability (%) ([3]; PDO7, 1 µM, 4 days, 1 µM): 99.67% and 101.17% | viability at 0.5 µM ([4]; Homo sapiens, 96 h, read-out: Cell viability (%), PDO10, 0.5 µM, 4 d): 90.5% | viability at 1 µM ([4]; Homo sapiens, 96 h, read-out: Cell viability (%), PDO10, 1 µM, 4 days): 94.7% | Cell viability (%) ([4]; PDO10, 0.5 µM, 4 d, 0.5 µM): 87.26% and 98.21% | Cell viability (%) ([4]; PDO10, 1 µM, 4 days, 1 µM): 92.67% and 102.90% | viability at 0.5 µM ([5]; Homo sapiens, 96 h, read-out: Cell viability (%), PDO13, 0.5 µM, 4 d): 90.8% | viability at 1 µM ([5]; Homo sapiens, 96 h, read-out: Cell viability (%), PDO13, 1 µM, 4 days): 85.6% | Cell viability (%) ([5]; PDO13, 0.5 µM, 4 d, 0.5 µM): 102.60% and 92.37% | Cell viability (%) ([5]; PDO13, 1 µM, 4 days, 1 µM): 87.89% and 85.59% | viability at 0.5 µM ([6]; Homo sapiens, 96 h, read-out: Cell viability (%), PDO14, 0.5 µM, 4 d): 104% | viability at 1 µM ([6]; Homo sapiens, 96 h, read-out: Cell viability (%), PDO14, 1 µM, 4 days): 100% | Cell viability (%) ([6]; PDO14, 0.5 µM, 4 d, 0.5 µM): 101.08% and 101.64% | Cell viability (%) ([6]; PDO14, 1 µM, 4 days, 1 µM): 109.63% and 109.64% | viability at 0.5 µM ([7]; Homo sapiens, 96 h, read-out: Cell viability (%), PDO15, 0.5 µM, 4 d): 98% | viability at 1 µM ([7]; Homo sapiens, 96 h, read-out: Cell viability (%), PDO15, 1 µM, 4 days): 106% | Cell viability (%) ([7]; PDO15, 0.5 µM, 4 d, 0.5 µM): 99.16% and 105.27% | Cell viability (%) ([7]; PDO15, 1 µM, 4 days, 1 µM): 107.85% and 101.84% | LS 174T Cell viability (%) ([8]; 0.0137 µM): 99.40% and 93.05% and 101.28% and 92.22% | LS 174T Cell viability (%) ([8]; 0.0412 µM): 92.09% and 86.77% and 91.37% and 88.68% and 85.53% | LS 174T Cell viability (%) ([8]; 0.1235 µM): 82.00% and 78.88% and 87.71% and 84.96% | LS 174T Cell viability (%) ([8]; 0.3704 µM): 80.28% and 77.65% and 86.62% and 87.42% and 86.17% | LS 174T Cell viability (%) ([8]; 1.1111 µM): 91.92% and 90.66% and 93.51% and 91.38% and 95.21%
